Assay results from patent publication US20170080040A1, “DECOCTION OF OLIVE LEAVES” (priority 2014, published 2017).

How the values were obtained:
[1] = test system: mice CD-1 males; assay: Stimulating activity: effect on loss of straightening reflex (sleep) induced by ethanol in mice; type: in vivo; details: caffeine 60 mg/kg
Text: The antioxidant and anti-radical activity was studied on decoctions 1 and 2, respectively, by testing the decolorization of the radical cation ABTS^• (2.2′-azino-bis-3-ethylbenzothiazoline-6-sulphonic acid) (Re et al.—Free Rad. Biol. Med. 26: 1231, 1999) and by testing the neutralization of the radical 1,1-diphenyl-2-picrylhydrazyl (DPPH^•) (Brand-Williams et al.—Food Sci. Technol. 28: 25, 1995). Finally, decoctions 1 and 2 were studied for potential stimulating activity, verifying the effect on sleep induced by ethanol in mice according to the method reported by Yacoubi et al. (Yacoubi et al. —Neuropharmacology 45: 977, 2003).
The stimulating activity of the decoctions of olive leaves was evaluated on the basis of the reduction of the hypnotic effect induced by ethanol in the mice (Yacoubi et al.—Neuropharmacology 45: 977, 2003). The animals were housed in groups of 5 and kept for at least a week in the same place where the test was carried out, at a constant temperature (23±1° C.) and relative humidity (50-60%), with a fixed artificial light cycle (07.00-19.00). The experiment was carried out in conformity with the laws in force that regulate the use of animals for scientific purposes (Italian Legislative Decree 116 of 27 Jan. 1992 and the Directives of the European Communities Council of 24 Nov. 1986/86/609/EEC).
At the moment of the experiment, each animal was positioned individually in a cage. The lyophilized decoctions, dissolved in water, were administered to the mice (dose: 120 mg/kg; volume of solution administered: 10 ml/kg) by means of gastric intubation, 30 minutes before the inter-peritoneal injection of an aqueous composition of ethanol at 20% (v/v; 4 g/kg). The control animals were administered 10 ml/kg of physiological solution. The induction of ethanol induced sedation in the animals, with the loss of the straightening reflex. In every animal both the duration of the latency phase that elapsed between the injection of the ethanol and the loss of the straightening reflex, and the duration of the loss of the straightening reflex were measured. The stimulating activity was evaluated on the basis of both the increase in the latency phase and also on the reduction in the duration of the loss of the straightening reflex. The effect was compared to that of caffeine, at a dose of 60 mg/kg. Each treatment group consisted of 10 animals.
The values of IC50 were calculated on the basis of the linear regression of the straight lines that put the logarithm of the concentrations tested in relation to the reduction of the absorbance measured, using the appropriate function of an electronic spreadsheet. The in vivo data were analyzed according to the Student's t-test, accepting as significant the values of p<0.05.
The stimulating activity of decoctions 1 and 2 was evaluated in the mice, after oral administration of 120 mg/kg of lyophilized decoction (corresponding to 9.6 and 11.9) ml of decoction 1 and 2 liquid/kg), verifying the effect on the loss of straightening induced by the intraperitoneal injection of ethanol (4 g/kg). The parameters evaluated were the increase in the latency phase between the ethanol injection and the loss of the straightening reflex, and the duration of the loss of the straightening reflex (interval between the loss and the re-acquisition of the straightening reflex). As a reference compound, caffeine was used at a dose of 60 mg/kg (corresponding to an average dose of coffee equal to about 40 ml/kg).

[2] = Antioxidant activity: decoloring test of the cationic radical ABTS•+; details: mg lyophilized preparation per ml; absorbance at 734 nm; four determinations
Experimental: Biol. Med. 26: 1231, 1999) and by testing the neutralization of the radical 1,1-diphenyl-2-picrylhydrazyl (DPPH^•) (Brand-Williams et al.—Food Sci. Technol. 28: 25, 1995). […] (Yacoubi et al. —Neuropharmacology 45: 977, 2003). The antioxidant activity was evaluated according to the method reported by Re and collaborators (Re et al.—Free Rad. Biol. Med. 26: 1231, 1999). […] In the presence of an antioxidant the ABTS^•+ is reduced to colorless ABTS, determining a decoloring of the solution in which it is dissolved, which can be measured by spectrophotometry quantifying the absorbance at 734 nm. […] The antioxidant activity, expressed as IC50, was compared to that of Trolox, a similar water-soluble to vitamin E, and to that of an infusion of green tea, prepared with 10 g of leaves in 1 liter of water (from which 4.385 g of lyophilized infusion were obtained). For every sample four determinations were carried out and the result was expressed as average±standard deviation of the analyses done. The values of IC50 were calculated on the basis of the linear regression of the straight lines that put the logarithm of the concentrations tested in relation to the reduction of the absorbance measured, using the appropriate function of an electronic spreadsheet. The in vivo data were analyzed according to the Student's t-test, accepting as significant the values of p<0.05. […]

[3] = mice, oral 30 min before ethanol 4 g/kg i.p., decoctions 120 mg/kg lyophilized, n = 10
[4] = mice, oral, decoctions 120 mg/kg, ethanol 4 g/kg i.p.

| Lyophilized Decoction IC50 Average ± D.S. (antioxidant activity, ABTS) [2] | SMILES | reduction in the duration of the loss of the straightening reflex ([1]; given as positive reduction, decoctions 120 mg/kg) | Duration Average ± E.S. (of the loss of the straightening reflex) [1, 3] | Latency Average ± E.S. (between ethanol injection and loss of the straightening reflex) [1, 3] | Duration Difference (%) with respect to the controls [1, 4] | Latency Difference (%) with respect to the controls (increase in the latency period) [1, 4] |
| --- | --- | --- | --- | --- | --- | --- |
|  | Cn1c(=O)c2c(ncn2C)n(C)c1=O [Caffeine, caffeine] | 43% | 23.5 ± 3.3 min | 215.7 ± 18.2 s | −43% | 48% |
| 30 µg/mL | Cc1c(C)c2c(c(C)c1O)CCC(C)(C(=O)O)O2 (stereo not drawn) [Trolox] |  |  |  |  |  |
